From patent US9695192B2, “Fused heterocyclic compounds as ion channel modulators” (GILEAD SCIENCES, INC., priority 2011, dated 2017)

Target: wild-type human cardiac sodium channel, hNav1.5 (Homo sapiens, UniProt Q14524)
Assay: Late INa screening assay (QPatch whole cell patch clamp, tefluthrin-enhanced late sodium current)
Format: cell-based
Conditions: HEK293 hNav1.5, late INa activated with 10 μM Tefluthrin
Description: The late sodium current (Late INa) and peak sodium current (Peak INa) assays are performed on an automated electrophysiology platform, QPatch 16X (Sophion Bioscience, Copenhagen, Denmark), which uses the whole cell patch clamp technique to measure currents through the cell membrane of up to 16 cells at a time. The assay uses an HEK293 (human embryonic kidney) cell line heterologously expressing the wild-type human cardiac sodium channel, hNav1.5, purchased from Millipore (Billerica, Mass.). No beta subunits were coexpressed with the Na channel alpha subunit. Cells are maintained with standard tissue culture procedures and stable channel expression is maintained with 400 μg/mL Geneticin in the culture medium. Cells isolated for use on QPatch are incubated for 5 minutes in Detachin 1X (Genlantis, San Diego, USA) at 37° C. to ensure that 80-90% of the cells are single and not part of a cell cluster. Experiments are carried out at 23-25° C.
For both the Late INa and Peak INa assays, series resistance compensation is set to 100% and series resistance and whole-cell compensation are performed automatically. Currents are digitized at 25 kHz and low-pass filtered at 12 kHz and 10 kHz for the late and peak INa assays, respectively. Currents through open sodium channels are automatically recorded and stored in the Sophion Bioscience Oracle database (Sophion Bioscience, Copenhagen, Denmark). Analysis is performed using QPatch Assay and database software and data are compiled in Excel.
Compound stocks are routinely made by the Gilead Sample Bank in plastic vials to 10 mM in dimethyl sulfoxide (DMSO). In some cases, when compounds are not soluble in DMSO, they are made in 100% ethanol. Stocks are sonicated as necessary. The extracellular solution for screening Late INa is composed of: 140 mM NaCl, 4 mM KCl, 1.8 mM CaCl2, 0.75 mM MgCl2 and 5 mM HEPES with pH adjusted to 7.4 using NaOH. The intracellular solution used to perfuse the inside of the cells for both the Late INa and Peak INa assays contains: 120 mM CsF, 20 mM CsCl, 5 mM EGTA, 5 mM HEPES and pH adjusted to 7.4 with CsOH. Compounds are diluted in extracellular solution to 1 μM in glass vials and then transferred to glass well plates before robotic addition to the cells. A 0 mM Na extracellular solution (0 Na-ECF) is used at the end of each experiment for the Late INa and Peak INa assays to measure baseline current contains: 140 mM N-methyl-D-glucamine; 4 mM KCl; 1.8 mM CaCl2; 0.75 mM MgCl2; 5 mM HEPES and pH was adjusted to 7.4 with HCl.
For the hNav1.5 Late INa assay, sodium channels are activated every 10 seconds (0.1 Hz) by depolarizing the cell membrane to −20 mV for 250 milliseconds (ms) from a holding potential of −120 mV. In response to a −20 mV voltage step, typical hNav1.5 sodium currents activate rapidly to a peak negative current and then inactivate nearly completely within 3-4 ms.
Compounds were tested to determine their activity in blocking the late sodium current. Late INa was generated by adding 10 μM Tefluthrin (pyrethroid) to the extracellular solution while recording Na currents. To confirm the block of late INa observed using the automated screening method, a second late INa enhancer (ATX-II) and the manual patch clamp method were used. ATX-II and tefluthrin occupy distinct, non-overlapping binding sites and modify Na^+ channel function differently to increase late INa. Compounds tested have been found generally to inhibit the enhanced late INa caused by either late INa enhancer. For the purposes of the screening, late INa is defined as the mean current between 225 ms and 250 ms after stepping to −20 mV to activate Na channels. After establishing the whole cell recording configuration, late INa activator is added to each well 4 times over a 16-17 minute period so that the late component of the Na current reaches a stable value. Compounds were then added (typically at 1 μM), in the presence of the late INa activator, with 3 additions over the course of 7 or 8 minutes. […]

wild-type human cardiac sodium channel, hNav1.5, sequence (Q14524 whole entry): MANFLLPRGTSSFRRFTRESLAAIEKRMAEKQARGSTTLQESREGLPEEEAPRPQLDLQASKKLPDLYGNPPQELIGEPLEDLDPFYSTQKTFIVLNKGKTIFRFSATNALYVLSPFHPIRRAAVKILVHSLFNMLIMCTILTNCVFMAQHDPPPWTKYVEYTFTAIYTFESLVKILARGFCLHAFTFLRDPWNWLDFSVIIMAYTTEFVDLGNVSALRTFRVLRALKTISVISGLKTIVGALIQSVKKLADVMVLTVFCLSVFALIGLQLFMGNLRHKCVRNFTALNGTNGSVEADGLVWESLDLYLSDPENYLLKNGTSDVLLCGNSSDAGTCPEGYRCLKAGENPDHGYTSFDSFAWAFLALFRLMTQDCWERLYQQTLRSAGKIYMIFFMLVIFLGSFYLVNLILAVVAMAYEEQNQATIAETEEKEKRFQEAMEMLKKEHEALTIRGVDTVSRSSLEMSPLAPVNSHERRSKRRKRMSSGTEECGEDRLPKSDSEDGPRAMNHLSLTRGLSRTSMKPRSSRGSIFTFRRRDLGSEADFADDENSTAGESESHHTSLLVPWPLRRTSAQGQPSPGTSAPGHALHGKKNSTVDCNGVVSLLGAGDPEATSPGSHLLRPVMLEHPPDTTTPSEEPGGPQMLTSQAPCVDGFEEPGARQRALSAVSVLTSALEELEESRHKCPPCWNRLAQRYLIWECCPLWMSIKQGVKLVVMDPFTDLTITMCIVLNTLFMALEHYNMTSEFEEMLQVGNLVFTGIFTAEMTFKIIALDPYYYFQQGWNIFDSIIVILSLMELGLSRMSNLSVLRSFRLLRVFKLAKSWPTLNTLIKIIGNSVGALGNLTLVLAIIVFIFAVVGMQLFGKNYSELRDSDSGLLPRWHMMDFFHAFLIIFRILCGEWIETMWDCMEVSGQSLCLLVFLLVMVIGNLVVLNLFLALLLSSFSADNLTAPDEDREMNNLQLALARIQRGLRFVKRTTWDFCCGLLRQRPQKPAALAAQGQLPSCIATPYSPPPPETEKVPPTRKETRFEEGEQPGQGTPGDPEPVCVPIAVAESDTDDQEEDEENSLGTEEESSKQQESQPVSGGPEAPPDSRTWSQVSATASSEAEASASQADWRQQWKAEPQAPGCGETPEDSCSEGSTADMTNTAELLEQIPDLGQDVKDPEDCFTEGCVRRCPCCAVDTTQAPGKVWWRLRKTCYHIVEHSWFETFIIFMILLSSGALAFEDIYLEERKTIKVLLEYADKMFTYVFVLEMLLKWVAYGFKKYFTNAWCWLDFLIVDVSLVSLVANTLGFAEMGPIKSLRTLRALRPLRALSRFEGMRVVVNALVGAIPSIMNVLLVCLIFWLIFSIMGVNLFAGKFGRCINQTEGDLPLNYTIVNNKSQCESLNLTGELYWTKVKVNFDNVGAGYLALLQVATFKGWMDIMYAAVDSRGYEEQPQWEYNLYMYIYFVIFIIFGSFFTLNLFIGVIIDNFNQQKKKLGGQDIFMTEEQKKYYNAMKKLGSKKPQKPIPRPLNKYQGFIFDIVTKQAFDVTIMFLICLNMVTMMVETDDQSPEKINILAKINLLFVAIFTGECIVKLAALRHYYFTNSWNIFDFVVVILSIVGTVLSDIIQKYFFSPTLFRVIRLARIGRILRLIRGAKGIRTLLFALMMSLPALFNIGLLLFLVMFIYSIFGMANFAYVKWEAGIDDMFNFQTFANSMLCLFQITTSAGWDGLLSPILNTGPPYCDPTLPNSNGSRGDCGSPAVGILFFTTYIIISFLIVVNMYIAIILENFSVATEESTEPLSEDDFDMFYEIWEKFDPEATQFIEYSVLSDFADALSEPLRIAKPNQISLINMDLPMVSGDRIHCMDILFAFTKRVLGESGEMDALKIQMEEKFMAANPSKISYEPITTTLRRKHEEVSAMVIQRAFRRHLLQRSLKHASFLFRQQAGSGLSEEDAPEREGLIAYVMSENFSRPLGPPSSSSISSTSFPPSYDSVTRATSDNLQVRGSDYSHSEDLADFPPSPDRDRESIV

Row | Compound | inhibition at 1 µM
1 | N[C@@H]1CCN(C2=NCCOc3ccc(-c4ccc(C(F)(F)F)cc4)cc32)C1 [II-41, (R)-1-(7-(4-(trifluoromethyl)phenyl)-2,3-dihydrobenzo[f][1,4]oxazepin-5-yl)pyrrolidin-3-amine] | 6%
2 | FC(F)(F)c1ccc(-c2ccc3c(c2)C(N2CCC(NCc4ncccn4)C2)=NCCO3)cc1 (stereo not shown) [II-37, N-(pyrimidin-2-ylmethyl)-1-(7-(4-(trifluoromethyl)phenyl)-2,3-dihydrobenzo[f][1,4]oxazepin-5-yl)pyrrolidin-3-amine] | 20%
3 | CN(Cc1ccccc1)C1=NCCOc2ccc(-c3ccc(C(F)(F)F)cc3)cc21 [II-5, N-benzyl-N-methyl-7-(4-(trifluoromethyl)phenyl)-2,3-dihydrobenzo[f][1,4]oxazepin-5-amine] | 28%
4 | CN(C1=NCCOc2ccc(-c3ccc(C(F)(F)F)cc3)cc21)C1CC1 [II-8, N-cyclopropyl-N-methyl-7-(4-(trifluoromethyl)phenyl)-2,3-dihydrobenzo[f][1,4]oxazepin-5-amine] | 13%
5 | FC(F)(F)c1ccc(-c2ccc3c(c2)-c2nncn2CCO3)cc1 [Compound I-3, 10-(4-(trifluoromethyl)phenyl)-5,6-dihydrobenzo[f][1,2,4]triazolo[4,3-d][1,4]oxazepine] | 13%
6 | CN(C(=O)OC(C)(C)C)[C@@H]1CCN(C2=NCCOc3ccc(-c4ccc(C(F)(F)F)cc4)cc32)C1 [II-38, (R)-tert-butyl methyl(1-(7-(4-(trifluoromethyl)phenyl)-2,3-dihydrobenzo[f][1,4]oxazepin-5-yl)pyrrolidin-3-yl)carbamate] | 18%
7 | FC(F)(F)c1ccc(-c2ccc3c(c2)C(Nc2ccccc2)=NCCO3)cc1 [II-32, N-phenyl-7-(4-(trifluoromethyl)phenyl)-2,3-dihydrobenzo[f][1,4]oxazepin-5-amine] | 26%
8 | NC1CN(C2=NCCOc3ccc(-c4ccc(C(F)(F)F)cc4)cc32)C1 [II-18, 1-(7-(4-(trifluoromethyl)phenyl)-2,3-dihydrobenzo[f][1,4]oxazepin-5-yl)azetidin-3-amine] | 9%
9 | FC1(F)CCN(C2=NCCOc3ccc(-c4ccc(C(F)(F)F)cc4)cc32)CC1 [II-21, 5-(4,4-difluoropiperidin-1-yl)-7-(4-(trifluoromethyl)phenyl)-2,3-dihydrobenzo[f][1,4]oxazepine] | 13%
10 | OC1CCN(C2=NCCOc3ccc(-c4ccc(C(F)(F)F)cc4)cc32)C1 (stereo not shown) [II-23, 1-(7-(4-(trifluoromethyl)phenyl)-2,3-dihydrobenzo[f][1,4]oxazepin-5-yl)pyrrolidin-3-ol] | 9%
11 | Cc1cn2c(n1)-c1cc(-c3ccc(C(F)(F)F)cc3)ccc1OCC2 [Compound I-19, 2-methyl-10-(4-(trifluoromethyl)phenyl)-5,6-dihydrobenzo[f]imidazo[1,2-d][1,4]oxazepine] | 13%
12 | FC(F)(F)c1ccc(-c2ccc3c(c2)C(NC2CC2)=NCCO3)cc1 [II-4, N-cyclopropyl-7-(4-(trifluoromethyl)phenyl)-2,3-dihydrobenzo[f][1,4]oxazepin-5-amine] | 25%
13 | FC(F)(F)c1ccc(-c2ccc3c(c2)C(Nc2nnn[nH]2)=NCCO3)cc1 [II-26, N-(1H-tetrazol-5-yl)-7-(4-(trifluoromethyl)phenyl)-2,3-dihydrobenzo[f][1,4]oxazepin-5-amine] | 14%
14 | O=C(N[C@@H]1CCN(C2=NCCOc3ccc(-c4ccc(C(F)(F)F)cc4)cc32)C1)c1ccccn1 [II-47, (R)—N-(1-(7-(4-(trifluoromethyl)phenyl)-2,3-dihydrobenzo[f][1,4]oxazepin-5-yl)pyrrolidin-3-yl)picolinamide] | 18%
15 | O=C1CCCN1C1=NCCOc2ccc(-c3ccc(C(F)(F)F)cc3)cc21 [II-30, 1-(7-(4-(trifluoromethyl)phenyl)-2,3-dihydrobenzo[f][1,4]oxazepin-5-yl)pyrrolidin-2-one] | 10%
16 | CC(C)(C)OC(=O)N[C@@H]1CCN(C2=NCCOc3ccc(-c4ccc(C(F)(F)F)cc4)cc32)C1 [II-50, (R)-tert-butyl 1-(7-(4-(trifluoromethyl)phenyl)-2,3-dihydrobenzo[f][1,4]oxazepin-5-yl)pyrrolidin-3-ylcarbamate] | 22%
17 | O=C1CCCN1C1CCN(C2=NCCOc3ccc(-c4ccc(C(F)(F)F)cc4)cc32)CC1 [II-42, 1-(1-(7-(4-(trifluoromethyl)phenyl)-2,3-dihydrobenzo[f][1,4]oxazepin-5-yl)piperidin-4-yl)pyrrolidin-2-one] | 9%
18 | CN[C@@H]1CCN(C2=NCCOc3ccc(-c4ccc(C(F)(F)F)cc4)cc32)C1 [II-39, (R)—N-methyl-1-(7-(4-(trifluoromethyl)phenyl)-2,3-dihydrobenzo[f][1,4]oxazepin-5-yl)pyrrolidin-3-amine] | 26%
19 | FC(F)(F)c1ccc(-c2ccc3c(c2)C(N2CCC(N4CCCC4)C2)=NCCO3)cc1 (stereo not shown) [II-36, 5-(1,3′-bipyrrolidin-1′-yl)-7-(4-(trifluoromethyl)phenyl)-2,3-dihydrobenzo[f][1,4]oxazepine] | 7%
20 | CC(C)(C)OC(=O)NC1CN(C2=NCCOc3ccc(-c4ccc(C(F)(F)F)cc4)cc32)C1 [II-12, tert-butyl 1-(7-(4-(trifluoromethyl)phenyl)-2,3-dihydrobenzo[f][1,4]oxazepin-5-yl)azetidin-3-ylcarbamate] | 9%
21 | CC(C)(C)OC(=O)NC1CCN(C2=NCCOc3ccc(-c4ccc(C(F)(F)F)cc4)cc32)C1 (stereo not shown) [II-57, tert-butyl 1-(7-(4-(trifluoromethyl)phenyl)-2,3-dihydrobenzo[f][1,4]oxazepin-5-yl)pyrrolidin-3-ylcarbamate] | 23%
22 | FC(F)(F)c1ccc(-c2ccc3c(c2)C(NC2CCN(Cc4ncccn4)C2)=NCCO3)cc1 (stereo not shown) [II-34, N-(1-(pyrimidin-2-ylmethyl)pyrrolidin-3-yl)-7-(4-(trifluoromethyl)phenyl)-2,3-dihydrobenzo[f][1,4]oxazepin-5-amine] | 3%
23 | FC(F)(F)CNC1=NCCOc2ccc(-c3ccc(C(F)(F)F)cc3)cc21 [II-29, N-(2,2,2-trifluoroethyl)-7-(4-(trifluoromethyl)phenyl)-2,3-dihydrobenzo[f][1,4]oxazepin-5-amine] | 7%
24 | FC(F)(F)c1ccc(-c2ccc3c(c2)C(NCCOc2ccccc2Cl)=NCCO3)cc1 [II-24, N-(2-(2-chlorophenoxy)ethyl)-7-(4-(trifluoromethyl)phenyl)-2,3-dihydrobenzo[f][1,4]oxazepin-5-amine] | 26%
25 | Cn1c(CNC2=NCCOc3ccc(-c4ccc(C(F)(F)F)cc4)cc32)nc2ccccc21 [II-33, N-((1-methyl-1H-benzo[d]imidazol-2-yl)methyl)-7-(4-(trifluoromethyl)phenyl)-2,3-dihydrobenzo[f][1,4]oxazepin-5-amine] | 34%
26 | FC(F)(F)c1ccc(-c2ccc3c(c2)-c2nnc(C4CC4)n2CCO3)cc1 [Compound I-5, 3-cyclopropyl-10-(4-(trifluoromethyl)phenyl)-5,6-dihydrobenzo[f][1,2,4]triazolo[4,3-d][1,4]oxazepine] | 18%
27 | FC(F)(F)c1ccc(-c2ccc3c(c2)C(NCCn2ccnc2)=NCCO3)cc1 [II-14, N-(2-(1H-imidazol-1-yl)ethyl)-7-(4-(trifluoromethyl)phenyl)-2,3-dihydrobenzo[f][1,4]oxazepin-5-amine] | 17%
28 | FC(F)(F)c1ccc(-c2ccc3c(c2)C2=NCCCN2CCO3)cc1 [Compound I-8, 11-(4-(trifluoromethyl)phenyl)-3,4,6,7-tetrahydro-2H-benzo[f]pyrimido[1,2-d][1,4]oxazepine] | 9%
